Results as given in PMC10689823, “Discovery of a Drug-like, Natural Product-Inspired DCAF11 Ligand Chemotype” (Nature Communications, 2023).
“And” between values parts separate entries of the source, which are not always exact repeats. Equal entries are not always repeated. Each block holds one compound with its values, some of them ahead of it.

What was measured:
Format in all cases: cell-based
[1] = tested on: Jurkat cells; assay: Cell viability assay (CellTiter-Glo) in Jurkat cells; details: for GI50: Homo sapiens; for GI50 / Relative cell viability (%): Jurkat cells, 72 h; for Relative cell viability (%): Fig. 4k; for Cell viability (%) relative to DMSO: individual replicates, Supplementary Fig. 7g
Procedure, shortened: (§1)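 Jurkat and Hep G2 cells were exposed to compounds for 72 h, with an untreated plate counted at time zero. Viability was read as CellTiter-Glo luminescence after 10 min reagent incubation at room temperature.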

[2] = as above; details: human, Jurkat cells; for viability at 72 h, 10 nmol/L: concentration 10 nmol/L; for viability at 72 h, 30 nmol/L: concentration 30 nmol/L; for viability at 72 h, 100 nmol/L: concentration 100 nmol/L; for viability at 72 h, 1000 nmol/L: concentration 1000 nmol/L; for viability at 72 h, 3000 nmol/L: concentration 3000 nmol/L; for viability at 72 h, 0.01 µM: 10 nM; for viability at 72 h, 0.03 µM: 30 nM; for viability at 72 h, 0.1 µM: 100 nM; for viability at 72 h, 0.3 µM: 300 nM; for viability at 72 h, 1 µM: 1000 nM
Procedure, shortened: as §1

[3] = tested on: BRD2; assay: In-Cell Western for BRD2 levels in Hep G2 cells
Procedure, shortened: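 Hep G2 cells were treated with compound for the indicated time and concentration. After fixation and permeabilisation, BRD2 was immunostained and read by near-infrared imaging. BRD2 signal was normalised to vinculin.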

[4] = molecular target: T1, BRD2 (Homo sapiens, UniProt P25440); assay: BRD2 levels by Western blot in Jurkat cells; set-up: endogenous in cells; host or cells: Jurkat; Hep G2; MDA-MB-231; KBM7 (WT, DCAF11 KO, DDB1 KO); Dmax: dose or concentration left out as unconfirmed; details: for degradation of BRD2: 3 µM, 6 h treatment
Procedure: (§2) Cells were washed with PBS and lysed in lysis buffer (50 mM Tris-HCl, pH 7.4, 150 mM NaCl, 1% Triton X-100, 1% sodium deoxycholate, 0.1% SDS) with complete protease inhibitor cocktail (Roche, 11836170001) for 30 min on ice. For Ramos cells, cell pellets were lysed in lysis buffer (50 mM Tris-HCl, pH 8, 150 mM NaCl, 1% NP-40, 0.5% sodium deoxycholate) with complete protease inhibitor cocktail. After centrifugation at 16,000 x g, the supernatant was transferred into a new tube and the protein concentration was determined by DC protein assay (BIO-RAD, 5000116). Proteins were separated by SDS-PAGE and transferred to a PVDF membrane (Thermo scientific, 0.45 μm, 88518). For PDEδ, BRD2, GAPDH, BRD4, Vinculin and BTK, the membranes were blocked with Intercept® Blocking Buffer (LI-COR Biosciences, 927-70001) at room temperature for 1 h. The primary antibodies for these proteins were diluted with Intercept® Blocking Buffer (1:500 for PDEδ, 1:3000 for Vinculin, and 1:1000 for other proteins) and incubated with the membranes overnight at 4 °C. Membranes were washed with PBS + 0.1% Tween 20 (PBS-T) five times and incubated with secondary antibodies conjugated to IRDye® Infrared Fluorescent Dyes (1:5000, LI-COR Biosciences) at room temperature for 1 h with protection from light. After washing the membrane, signals were visualized using the ChemiDoc MP Imaging System (BIO-RAD Laboratories). For detection of LC3B, BRD3, BLK, DCAF11, DDB1 RBX1, FIP200, V5- and FLAG-Tag the membranes were blocked with 5% milk in PBS-T at room temperature for 1 h. The primary antibodies for these proteins were diluted in 5% milk in PBS-T buffer (1:200 for BRD3, 1:1000 for other proteins) and incubated with the membranes overnight at 4 °C. Membranes were washed with PBS-T five times and incubated with HRP secondary antibodies (1:1500) at room temperature for 1 h. After washing the membrane, protein detection was performed using Western blotting detection reagent (Thermo Scientific, 34095) and the ChemiDoc MP Imaging System (BIO-RAD). Relative band intensities were quantified using Image Lab (BIO-RAD).

[5] = tested on: caspase-3/7 activity; assay: Caspase-3/7 Activity Assay in Jurkat cells; details: 18 h
Procedure: Jurkat cells (3 × 10^3) were seeded in 96-well plates in 25 μl culture medium. Cells were treated with compounds dissolved in 25 μl medium at the indicated concentration for 18 h. After adding 50 μl of Caspase-Glo® 3/7 Reagent (Promega, G8091) to each well for 30 min at room temperature, the luminescence was measured on a Spark® Multimode Microplate Reader (Tecan). The data was analyzed by the GraphPad Prism 9.0.

[6] = molecular target: T2, BRD3 (Homo sapiens, UniProt Q15059); assay: BRD3 levels by Western blot in Jurkat cells; details: for degradation of BRD3: 3 µM, 6 h treatment
T2 construct: endogenous in cells; host or cells: Jurkat
Procedure: as §2

[7] = molecular target: T1, BRD2; assay: BRD2 levels by Western blot in KBM7 cells (WT, DCAF11 knockout, DDB1 knockout); set-up: endogenous in cells; host or cells: KBM7 (WT, DCAF11 KO, DDB1 KO); details: for BRD2 degradation after knockout of DDB1 in KBM7 cells: 0.5 µg/mL Dox for 3 days, then compound 4 h; for BRD2 degradation in DCAF11 knockout (KO1 and KO2) KBM7 cells: 9 at 3 μM, 10 at 10 μM, 11 at 10 μM, 6 h; for BRD2 degradation in KBM7 cells: 4 h
Procedure: as §2
DCAF11- or FIP200 (RB1CC1)-targeting sgRNAs were lentivirally packaged using PEI transfection of Lenti-X cells. The viral supernatant was harvested after 72 h, cleared of cellular debris by filtration through a 0.45-µm PES filter and stored in aliquots at −80 °C. The appropriate amount of viral supernatant was transduced into KBM7 cells (1 × 10^6 cells/mL) via spinfection (2000 rpm, 1 h, 37 °C) with polybrene (8 µg/mL). Two days post transduction, the cells were selected with puromycin (1 µg/mL) for a total of 5 days, after which the knockout pools were validated via western blotting.

[8] = individual replicates, Supplementary Fig. 7g, read-out: Cell viability (%) relative to DMSO
[9] = 72 h, Fig. 4k, read-out: Relative cell viability (%)

T1 sequence (P25440 whole entry): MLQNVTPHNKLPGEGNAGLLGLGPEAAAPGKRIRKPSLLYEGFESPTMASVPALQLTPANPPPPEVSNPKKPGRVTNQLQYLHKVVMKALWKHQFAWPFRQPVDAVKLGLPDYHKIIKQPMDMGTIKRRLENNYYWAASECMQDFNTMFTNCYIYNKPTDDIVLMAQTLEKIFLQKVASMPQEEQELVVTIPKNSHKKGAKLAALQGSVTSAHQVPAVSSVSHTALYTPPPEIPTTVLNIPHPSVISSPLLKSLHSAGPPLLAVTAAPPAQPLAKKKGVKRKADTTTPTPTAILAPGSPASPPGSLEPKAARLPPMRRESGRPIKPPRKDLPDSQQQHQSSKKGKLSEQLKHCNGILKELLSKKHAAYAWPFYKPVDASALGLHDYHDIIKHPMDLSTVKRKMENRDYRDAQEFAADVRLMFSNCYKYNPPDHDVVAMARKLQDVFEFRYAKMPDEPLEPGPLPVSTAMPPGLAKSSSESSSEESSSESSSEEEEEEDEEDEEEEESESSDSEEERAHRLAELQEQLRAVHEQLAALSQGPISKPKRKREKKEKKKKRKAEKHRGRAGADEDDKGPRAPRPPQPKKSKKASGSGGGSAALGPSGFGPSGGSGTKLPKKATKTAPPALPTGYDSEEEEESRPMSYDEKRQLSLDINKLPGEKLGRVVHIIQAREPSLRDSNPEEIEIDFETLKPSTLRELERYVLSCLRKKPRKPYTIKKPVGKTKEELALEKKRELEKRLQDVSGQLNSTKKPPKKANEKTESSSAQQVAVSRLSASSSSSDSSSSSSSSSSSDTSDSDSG
T2 sequence (Q15059 whole entry): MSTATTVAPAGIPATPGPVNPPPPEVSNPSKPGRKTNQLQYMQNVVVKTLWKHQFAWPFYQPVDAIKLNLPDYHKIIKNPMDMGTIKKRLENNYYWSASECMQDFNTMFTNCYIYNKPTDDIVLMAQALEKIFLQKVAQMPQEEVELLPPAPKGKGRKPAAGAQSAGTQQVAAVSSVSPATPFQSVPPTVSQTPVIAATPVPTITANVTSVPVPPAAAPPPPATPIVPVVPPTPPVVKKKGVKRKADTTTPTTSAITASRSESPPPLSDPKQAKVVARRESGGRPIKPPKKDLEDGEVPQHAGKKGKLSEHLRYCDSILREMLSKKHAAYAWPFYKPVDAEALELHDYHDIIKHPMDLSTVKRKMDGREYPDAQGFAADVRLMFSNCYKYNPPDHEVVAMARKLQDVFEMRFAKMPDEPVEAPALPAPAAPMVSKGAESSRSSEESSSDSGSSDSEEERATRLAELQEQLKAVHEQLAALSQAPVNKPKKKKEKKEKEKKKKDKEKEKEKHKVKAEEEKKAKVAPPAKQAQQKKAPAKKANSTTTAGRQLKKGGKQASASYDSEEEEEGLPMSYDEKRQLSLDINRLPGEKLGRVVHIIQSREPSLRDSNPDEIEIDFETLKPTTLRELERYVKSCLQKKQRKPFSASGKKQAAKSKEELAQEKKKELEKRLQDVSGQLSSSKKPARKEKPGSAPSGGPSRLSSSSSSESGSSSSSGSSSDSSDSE

SMILES: O=C1Nc2ccc(Br)cc2C1=Cc1cc(Br)c(O)c(Br)c1 [Compound 2]
GI50 [1]: > 30000 nM
Relative cell viability (%) ([1]; 10 nM, 0.01 µM): 109.397% and 95.8659%
Relative cell viability (%) ([1]; 30 nM, 0.03 µM): 109.179% and 98.227%
Relative cell viability (%) ([1]; 100 nM, 0.1 µM): 109.452% and 110.948%
Relative cell viability (%) ([1]; 300 nM, 0.3 µM): 108.619% and 101.195%
Relative cell viability (%) ([1]; 1000 nM, 1 µM): 100.635% and 106.748%
Relative cell viability (%) ([1]; 3000 nM, 3 µM): 102.832% and 100.062%
Relative cell viability (%) ([1]; 10000 nM, 10 µM): 99.6522% and 88.024%
Relative cell viability (%) ([1]; 30000 nM, 30 µM): 74.0357% and 70.3951%
Cell viability (%) relative to DMSO ([1]; concentration 10 nmol/L): 103.951% and 104.068%
Cell viability (%) relative to DMSO ([1]; concentration 30 nmol/L): 103.682% and 105.344%
Cell viability (%) relative to DMSO ([1]; concentration 100 nmol/L): 100.341% and 100.604%
Cell viability (%) relative to DMSO ([1]; concentration 300 nmol/L): 97.5611% and 103.704%
Cell viability (%) relative to DMSO ([1]; concentration 1000 nmol/L): 98.2177% and 99.0254%
Cell viability (%) relative to DMSO ([1]; concentration 3000 nmol/L): 82.942% and 99.8195%
Cell viability (%) relative to DMSO ([1]; concentration 10000 nmol/L): 67.1883% and 83.6742% and 92.9267%
Cell viability (%) relative to DMSO ([1]; concentration 30000 nmol/L): 49.2545% and 60.9936%
viability at 72 h, 10 nmol/L [2, 8]: 95.2%
viability at 72 h, 30 nmol/L [2, 8]: 91.8%
viability at 72 h, 100 nmol/L [2, 8]: 87.9%
viability at 72 h, 300 nmol/L ([2]; concentration 300 nmol/L, individual replicates, Supplementary Fig. 7g, read-out: Cell viability (%) relative to DMSO): 89.9%
viability at 72 h, 1000 nmol/L [2, 8]: 90.3%
viability at 72 h, 3000 nmol/L [2, 8]: 86.4%
viability at 72 h, 30000 nmol/L ([2]; concentration 30000 nmol/L, individual replicates, Supplementary Fig. 7g, read-out: Cell viability (%) relative to DMSO): 44.6%
viability at 72 h, 0.01 µM [2, 9]: 98.6%
viability at 72 h, 0.03 µM [2, 9]: 96.8%
viability at 72 h, 0.1 µM [2, 9]: 93.4%
viability at 72 h, 0.3 µM [2, 9]: 95.1%
viability at 72 h, 1 µM [2, 9]: 96.9%
viability at 72 h, 3 µM ([2]; 72 h, 3000 nM, Fig. 4k, read-out: Relative cell viability (%)): 93.5%
viability at 72 h, 10 µM ([2]; 72 h, 10000 nM, Fig. 4k, read-out: Relative cell viability (%)): 80.3%
viability at 72 h, 30 µM ([2]; 72 h, 30000 nM, Fig. 4k, read-out: Relative cell viability (%)): 59.8%
BRD2/Vinculin intensity (relative to control group) ([3]; Hep G2 cells, pretreated with compound at 30 μM 1 h, then 9 (10 μM, 4 h), single repeats, Fig. 4h): 45.5673 and 52.7494 and 40.9253 and 42.2632 and 42.726
Value (Mean ± SD): Relative BRD2 levels remaining in Hep G2 cells after treatment with compounds followed by treatment with 9, with DMSO control for normalization ([3]; qualitative ICW assay, pretreated at 30 μM 1 h, then 9 (10 μM, 4 h), Supplementary Table 1): 44.85 ± 4.23
BRD2 protein levels, ligands alone or in combination ([4]; 3 μM, 4 h): did not reduce BRD2 protein levels

degradation of BRD3 [6]: potent degradation activity
hook effect for BRD3 ([6]; 6 h, at 10 µM): strong hook effect
GI50 [1]: 90 ± 20 nM
BRD2 degradation after knockout of DDB1 in KBM7 cells [7]: did not lead to BRD2 degradation anymore
BRD2 degradation in DCAF11 knockout (KO1 and KO2) KBM7 cells [7]: abolished
BRD2 degradation in KBM7 cells [7]: displayed BRD2-degrading activity
degradation of BRD2 [4]: potent degradation activity
BRD2 levels after washout ([4]; 10 μM, 5 h prior to washout): did not recover
DC50 ([4]; 6 h, read-out: half-maximal degradation concentration (DC50) of BRD2): 255 nM
Dmax ([4]; 6 h, read-out: maximum level of degradation (Dmax) of BRD2): 84%
hook effect for BRD2 ([4]; 6 h, up to 50 µM concentration): almost no hook effect
SMILES: Cc1sc2c(c1C)C(c1ccc(Cl)cc1)=N[C@@H](CC(=O)NCCOCCOCCOCCOCCNC(=O)COc1c(Br)cc(/C=C3\C(=O)Nc4ccc(Br)cc43)cc1Br)c1nnc(C)n1-2 [Compound 9]
caspase-3/7 activation compared with JQ1 or non-active degraders 16 and 17 [5]: substantially higher
viability at 72 h, 10 nmol/L [2, 8]: 89.8%
viability at 72 h, 30 nmol/L [2, 8]: 92.8%
viability at 72 h, 100 nmol/L [2, 8]: 101%
viability at 72 h, 1000 nmol/L [2, 8]: 13%
viability at 72 h, 3000 nmol/L [2, 8]: 1.47%
viability at 72 h, 0.01 µM [2, 9]: 100%
viability at 72 h, 0.03 µM [2, 9]: 92%
viability at 72 h, 0.1 µM [2, 9]: 64.6%
BRD2 depletion by In-Cell Western ([3]; Hep G2 cells, 4 h): dose-dependent depletion of BRD2

degradation of BRD3 [6]: potent degradation activity
GI50 [1]: 190 ± 30 nM
BRD2 degradation after knockout of DDB1 in KBM7 cells [7]: did not lead to BRD2 degradation anymore
BRD2 degradation in DCAF11 knockout (KO1 and KO2) KBM7 cells [7]: abolished
BRD2 degradation in KBM7 cells [7]: displayed BRD2-degrading activity
degradation of BRD2 [4]: potent degradation activity
remaining activity at 3 µM ([4]; Jurkat, 6 h, 3 μM, 6 h, Fig. 4j, read-out: BRD2/Vinculin intensity (relative to DMSO control group)): 30.7%
SMILES: Cc1sc2c(c1C)C(c1ccc(Cl)cc1)=NC(CC(=O)NCCOCCOCCOCCOc1c(Br)cc(C=C3C(=O)Nc4ccc(Br)cc43)cc1Br)c1nnc(C)n1-2 (stereo not drawn) [Compound 10]
caspase-3/7 activation compared with JQ1 or non-active degraders 16 and 17 [5]: substantially higher
viability at 72 h, 10 nmol/L [2, 8]: 89.7%
viability at 72 h, 30 nmol/L [2, 8]: 90.1%
viability at 72 h, 0.1 µM [2, 9]: 70.8%
viability at 72 h, 0.3 µM [2, 9]: 33.9%
viability at 72 h, 1 µM [2, 9]: 1.17%
